Results published in patent publication US9499868B2, “Determination of single nucleotide polymorphisms useful to predict response for glatiramer acetate” (TEVA PHARMACEUTICAL INDUSTRIES, LTD., priority 2011, dated 2016).
Where two headings read alike, the source gives them in different places.

How the values were obtained:
RRMS patients = conditions: cited from earlier work
[1] = test system: multiple sclerosis patients (European/Canadian study); assay: Annualized relapse rate in European/Canadian study patients genetically predicted as responders/non-responders by FM1 model; type: in vivo, human; conditions: 0.8 threshold
From the text: In comparison, the average ARR in either placebo-treated patients or non treated patients (from European/Canadian study and CORAL, respectively) genetically predicted as responders was −7% and 26% lower, respectively, than in patients predicted as Non-Responders and 10% and 11% lower than in the whole study population. The reduction in average ARR by GA over placebo-treated patients in the responders population in the European/Canadian study was 79%.

[2] = test system: Relapsing-remitting multiple sclerosis patients (FORTE cohort); assay: Annualized relapse rate in FORTE cohort patients genetically predicted as responders/non-responders by predictive models; type: in vivo, human
Procedure: Relapsing-remitting multiple sclerosis patients were treated with either 20 mg GA or 40 mg GA daily in the Teva FORTE clinical trial (www.medicalnewstoday.com/articles/48863.php). Blood samples were drawn from each subject that signed an informed consent for the pharmacogenetic study and analyzed as described below.
A clinical relapse was defined as the appearance of one or more new neurological abnormalities or the reappearance of one or more previously observed neurological abnormalities.
To find genotypic profiles that discriminate responders (R) from the non-responders (NR) to the treatment, we used a backward stepwise logistic regression procedure on the SNPs that emerged significant using the narrow definition (e.g., at p-value=10^−4 or lower). Other models were generated based on combinatorial optimization heuristics. Once a pool of models was created, selected models were chosen based on the low value of Akaike's Information Criterion (AIC) and low number SNPs in the model. The model chosen in the previous step went through “Leave one out” cross validation, searching for high values of the Area Under the ROC curve.
The response probability p(Response) of a specific patient was calculated according to the tables and formulas indicated for each specific model.
Patients with p(Response) above 0.5 were predicted to be responders and patients with p(Response) below 0.5 were predicted to be non-responders. When the model was retrospectively applied to the full cohort of 599 FORTE patients, we observed that the annualized relapse rate (ARR) in patients genetically predicted as responders was reduced by 62% compared to all patients, and by 76% compared to non-responders (p<0.0001). When we applied the model retrospectively to a second independent cohort of 79 patients, the model could identify subpopulations genetically predicted to be responders and non-responders with respectively lower (for responders) and higher (for non-responders) relapse rate. In the placebo-treated arm no specific pattern could be observed.
The models were retrospectively applied to the full cohort of 599 FORTE patients using different predictive thresholds. The ratios between the Annualized Relapse Rate (ARR) of genetically predicted responder patients (R) compared to the average ARR in genetically predicted non-responder patients (NR), and the ratios between the average ARE observed in the genetically predicted responder patients (R) compared to average ARR in the whole study population (All), according to each predictive threshold or two predictive thresholds, are presented in table 37. […]

RRMS subjects = conditions: cited from earlier work
[3] = FM1 model, 0.8 threshold, FORTE
[4] = model GM2068, FORTE cohort, whole study population (All)
[5] = model GM2090, FORTE cohort, whole study population (All)
[6] = model GM2094, FORTE cohort, whole study population (All)
[7] = model GM2277, FORTE cohort, whole study population (All)

Glatiramer acetate [GA]
response rate (RRMS patients; DRB1*1501 carriers): 81.8% | response rate (RRMS patients; non-carriers of DRB1*1501): 39.4% | response rate (RRMS patients; whole study population): 50% | average ARR in GA-treated predicted responders lower than in patients predicted as non-responders [1]: 81% | average ARR in GA-treated predicted responders lower than in the whole study population [1]: 77% | reduction in average ARR by GA over placebo-treated patients in the responders population [1]: 79% | average ARR in GA-treated predicted responders lower than in patients predicted as non-responders [2, 3]: 76% | average ARR in GA-treated predicted responders lower than in the whole study population [2, 3]: 64% | reduction of annualized relapse rate (ARR) in genetically predicted responders compared to all patients ([2]; FM1 model, p(Response) threshold 0.5, full cohort of 599 FORTE patients): 62% | reduction of annualized relapse rate (ARR) in genetically predicted responders compared to non-responders ([2]; FM1 model, p(Response) threshold 0.5, full cohort of 599 FORTE patients, p<0.0001): 76% | ARR Vs. all ([2]; model FM1, response prediction All): 100% | ARR ([2]; model FM1, response prediction All (whole FORTE study population, threshold NA)): 0.241 | ARR Vs. all ([2]; model FM1a, response prediction All): 100% | ARR ([2]; model FM1a, response prediction All (whole FORTE study population, threshold NA)): 0.245 | ARR Vs. all ([2]; model FM2, response prediction All): 100% | ARR ([2]; model FM2, response prediction All (whole FORTE study population, threshold NA)): 0.245 | ARR Vs. all ([2]; model GM1003, response prediction All): 100% | ARR ([2]; model GM1003, response prediction All (whole FORTE study population, threshold NA)): 0.26 | ARR Vs. all ([2]; model GM1006, whole study population (All)): 100% | ARR ([2]; model GM1006, whole study population (All), FORTE cohort, 599 patients): 0.253 | ARR Vs. all ([2]; model GM1011, whole study population (All)): 100% | ARR ([2]; model GM1011, whole study population (All), FORTE cohort, 599 patients): 0.256 | ARR Vs. all ([2]; model GM1012, whole study population (All)): 100% | ARR ([2]; model GM1012, whole study population (All), FORTE cohort, 599 patients): 0.251 | ARR Vs. all ([2]; model GM2004, whole study population (All)): 100% | ARR ([2]; model GM2004, whole study population (All), FORTE cohort, 599 patients): 0.255 | ARR [2, 4]: 0.256 | ARR Vs. all [2, 4]: 100% | ARR [2, 5]: 0.254 | ARR Vs. all [2, 5]: 100% | ARR [2, 6]: 0.251 | ARR Vs. all [2, 6]: 100% | ARR [2, 7]: 0.258 | ARR Vs. all [2, 7]: 100% | ARR ([2]; model GM2338, response prediction All (whole study population), threshold NA, FORTE cohort): 0.251 | ARR Vs. all ([2]; model GM2338, response prediction All, threshold NA, FORTE cohort): 100% | ARR ([2]; model GM3102, response prediction All (whole study population), threshold NA, FORTE cohort): 0.263 | ARR Vs. all ([2]; model GM3102, response prediction All, threshold NA, FORTE cohort): 100% | ARR ([2]; model GM3150, response prediction All (whole study population), threshold NA, FORTE cohort): 0.26 | ARR Vs. all ([2]; model GM3150, response prediction All, threshold NA, FORTE cohort): 100% | ARR ([2]; model GM3332, response prediction All (whole study population), threshold NA, FORTE cohort): 0.262 | ARR Vs. all ([2]; model GM3332, response prediction All, threshold NA, FORTE cohort): 100% | tolerability (RRMS subjects; daily standard dose of 20 mg): generally well tolerated | reduction of relapse rate compared with placebo (RRMS subjects; largest controlled study, GA 20 mg, RRMS): 32% | relapse rate (RRMS subjects; largest controlled study, under GA 20 mg (1.98 under placebo)): 1.34 | median cumulative number of Gd-enhancing lesions (RRMS subjects; over 9 months of treatment, 20 mg group (17 under placebo)): 11 lesions
